Active and inactive are the calls of the source. The rule behind the calls is not given here.
What was measured:
[1] = target: NACHT, LRR and PYD domains-containing protein 3 (Mus musculus) (UniProt Q8R4B8); assay: (§1) Inhibition of NLRP3 inflammasome activation in LPS/ATP-induced C57BL/6 mouse BMDMs assessed as inhibition of ASC oligomerization by measuring reduction in NLRP3 expression at 50 to 200 nM preincubated with LPS for 4 hrs followed by compound addition for 30 mins and further stimulated with ATP for 30 mins by Western blotting analysis; format: cell-based; details: BMDM, dose 50-200 nM, time 1.0 hrs
Chain of NACHT, LRR and PYD domains-containing protein 3 (Mus musculus) (Q8R4B8 whole entry, the tested form may be a part): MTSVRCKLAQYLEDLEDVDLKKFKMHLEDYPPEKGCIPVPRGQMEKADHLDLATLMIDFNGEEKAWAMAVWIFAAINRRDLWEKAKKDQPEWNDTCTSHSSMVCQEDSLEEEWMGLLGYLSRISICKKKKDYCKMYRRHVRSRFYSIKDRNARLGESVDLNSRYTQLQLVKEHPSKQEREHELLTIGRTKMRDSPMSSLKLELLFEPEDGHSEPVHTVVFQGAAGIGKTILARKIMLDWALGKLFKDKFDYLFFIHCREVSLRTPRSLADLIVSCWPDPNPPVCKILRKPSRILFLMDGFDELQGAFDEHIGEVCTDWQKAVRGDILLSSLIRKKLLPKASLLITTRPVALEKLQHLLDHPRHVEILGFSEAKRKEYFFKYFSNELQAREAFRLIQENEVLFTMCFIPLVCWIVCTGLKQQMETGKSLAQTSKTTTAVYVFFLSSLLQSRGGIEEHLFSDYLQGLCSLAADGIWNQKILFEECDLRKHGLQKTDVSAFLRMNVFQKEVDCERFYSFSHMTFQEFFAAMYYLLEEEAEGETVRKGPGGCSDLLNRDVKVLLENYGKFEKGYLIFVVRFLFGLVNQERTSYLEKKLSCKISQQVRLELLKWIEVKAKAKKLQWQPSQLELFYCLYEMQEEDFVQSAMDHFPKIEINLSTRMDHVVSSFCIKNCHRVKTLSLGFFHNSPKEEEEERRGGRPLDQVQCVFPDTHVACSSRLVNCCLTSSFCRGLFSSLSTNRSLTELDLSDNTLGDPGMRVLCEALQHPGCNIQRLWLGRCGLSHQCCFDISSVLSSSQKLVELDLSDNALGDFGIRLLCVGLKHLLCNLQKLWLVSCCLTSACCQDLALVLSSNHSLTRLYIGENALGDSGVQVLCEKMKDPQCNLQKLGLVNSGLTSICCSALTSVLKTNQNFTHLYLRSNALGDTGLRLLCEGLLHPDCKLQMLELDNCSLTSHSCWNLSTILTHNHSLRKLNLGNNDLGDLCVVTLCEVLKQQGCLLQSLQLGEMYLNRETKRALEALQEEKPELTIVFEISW

[2] = target: NACHT, LRR and PYD domains-containing protein 3 (Mus musculus) (UniProt Q8R4B8); assay: as §1, with “in pro-IL-1beta” for “in NLRP3”; format: cell-based; details: BMDM, dose 50-200 nM, time 1.0 hrs
[3] = target: hERG (KCNH2) (Homo sapiens, UniProt Q12809); assay: Inhibition of human ERG expressed in CHO cells at 40 uM relative to control; format: toxicity, cell-based; details: CHO cells that express human ERG
Chain of hERG (KCNH2) (Q12809 whole entry): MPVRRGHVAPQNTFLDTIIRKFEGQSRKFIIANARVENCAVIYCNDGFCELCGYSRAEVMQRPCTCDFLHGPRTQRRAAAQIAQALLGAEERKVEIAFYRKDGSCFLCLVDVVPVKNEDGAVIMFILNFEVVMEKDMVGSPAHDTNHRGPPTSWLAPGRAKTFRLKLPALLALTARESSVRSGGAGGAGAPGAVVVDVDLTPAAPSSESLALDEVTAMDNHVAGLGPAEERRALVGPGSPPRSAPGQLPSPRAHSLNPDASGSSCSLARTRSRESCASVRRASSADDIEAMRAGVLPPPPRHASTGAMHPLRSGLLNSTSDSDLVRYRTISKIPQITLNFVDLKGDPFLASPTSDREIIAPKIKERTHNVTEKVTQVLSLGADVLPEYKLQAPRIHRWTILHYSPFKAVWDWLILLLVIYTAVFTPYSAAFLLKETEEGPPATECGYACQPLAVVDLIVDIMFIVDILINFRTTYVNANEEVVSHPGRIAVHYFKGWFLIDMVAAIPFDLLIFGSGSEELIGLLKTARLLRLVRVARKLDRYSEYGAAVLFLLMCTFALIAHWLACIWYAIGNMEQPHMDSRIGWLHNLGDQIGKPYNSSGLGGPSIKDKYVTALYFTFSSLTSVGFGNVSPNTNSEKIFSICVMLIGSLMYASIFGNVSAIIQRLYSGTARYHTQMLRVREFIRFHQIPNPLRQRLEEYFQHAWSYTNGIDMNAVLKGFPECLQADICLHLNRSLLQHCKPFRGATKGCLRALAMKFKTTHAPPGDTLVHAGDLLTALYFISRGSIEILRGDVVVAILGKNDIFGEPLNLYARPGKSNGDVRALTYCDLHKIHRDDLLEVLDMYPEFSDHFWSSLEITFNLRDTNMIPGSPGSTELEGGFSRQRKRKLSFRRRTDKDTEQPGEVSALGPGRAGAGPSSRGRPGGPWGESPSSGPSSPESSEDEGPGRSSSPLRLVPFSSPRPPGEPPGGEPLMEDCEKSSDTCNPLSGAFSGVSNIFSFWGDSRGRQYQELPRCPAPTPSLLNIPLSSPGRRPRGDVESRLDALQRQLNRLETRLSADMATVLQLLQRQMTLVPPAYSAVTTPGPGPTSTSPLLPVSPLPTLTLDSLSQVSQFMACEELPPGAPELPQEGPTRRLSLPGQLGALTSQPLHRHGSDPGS

[4] = target: Voltage-gated inwardly rectifying potassium channel KCNH2 (Homo sapiens, UniProt Q12809); assay: Inhibition of human ERG expressed in CHO cells; format: toxicity, cell-based
Chain of Voltage-gated inwardly rectifying potassium channel KCNH2 (Q12809 whole entry, the tested form may be a part): as the sequence (Q12809 whole entry) above

[5] = target: NACHT, LRR and PYD domains-containing protein 3 (Mus musculus) (UniProt Q8R4B8); assay: as §1, with “IL-1beta secretion” for “NLRP3 expression”; format: cell-based; details: BMDM, dose 50-200 nM, time 1.0 hrs
[6] = Stability in rat plasma assessed as half life measured upto 8 hrs; format: ADME, cell-free
[7] = tested on: Mus musculus; assay: Antiinflammatory activity in C57BL/6 mouse model of arthritis assessed as reduction in MSU-induced NLRP3 expression in joints at 12.5 to 25 mg/kg, iv measured upto 24 hrs; format: functional, organism-based; details: dose 12.5-25 mg/kg
[8] = tested on: Mus musculus; assay: Antiinflammatory activity in C57BL/6 mouse model of arthritis assessed as reduction in MSU-induced pro-caspase 1 expression in joints at 12.5 to 25 mg/kg, iv measured upto 24 hrs; format: functional, organism-based; details: dose 12.5-25 mg/kg
[9] = Stability in mouse liver microsomes assessed as half life preincubated for 5 mins with NADPH followed by compound addition and measured upto 120 mins by LC-MS/MS analysis; format: ADME, Microsome; details: time < 125 min
[10] = target: NACHT, LRR and PYD domains-containing protein 3 (Mus musculus) (UniProt Q8R4B8); assay: Inhibition of NLRP3 inflammasome activation in LPS/ATP-induced C57BL/6 mouse BMDMs assessed as reduction in pro-IL-1beta production at 50 to 200 nM preincubated with compound prior to LPS addition for 30 mins and further stimulated with ATP for 30 mins by Western blotting analysis; format: cell-based; details: BMDM, dose 50-200 nM, time 60.0 min
[11] = target: NACHT, LRR and PYD domains-containing protein 3 (Mus musculus) (UniProt Q8R4B8); assay: Inhibition of NLRP3 inflammasome activation in LPS-induced C57BL/6 mouse BMDMs assessed as reduction in pro-IL-1beta mRNA level at 50 to 200 nM preincubated for 24 hrs followed by LPS addition for 4 hrs by qRT-PCR analysis; format: cell-based; details: BMDM, dose 50-200 nM, time 28.0 hrs
[12] = tested on: Mus musculus; assay: Antiinflammatory activity in C57BL/6 mouse model of arthritis assessed as reduction in MSU-induced IL-1beta secretion at 12.5 to 25 mg/kg, iv measured upto 24 hrs; format: functional, organism-based; details: dose 12.5-25 mg/kg
[13] = target: NACHT, LRR and PYD domains-containing protein 3 (Mus musculus) (UniProt Q8R4B8); assay: Inhibition of NLRP3 inflammasome activation in LPS/ATP-induced C57BL/6 mouse BMDMs assessed as reduction in TNFalpha production at 50 to 200 nM preincubated with compound prior to LPS addition for 30 mins and further stimulated with ATP for 30 mins by Western blotting analysis; format: cell-based; details: BMDM, dose 50-200 nM, time 60.0 min
[14] = Hepatotoxicity in mouse assessed as change in AST/ALT ratio at 100 mg/kg, po or 12.5 to 25 mg/kg, iv; format: toxicity, organism-based; details: in vivo
[15] = target: NACHT, LRR and PYD domains-containing protein 3 (Mus musculus) (UniProt Q8R4B8); assay: Inhibition of NLRP3 inflammasome activation in LPS/ATP-induced C57BL/6 mouse BMDMs assessed as reduction in IL-1beta secretion at 500 nM preincubated with LPS for 4 hrs followed by compound addition for 30 mins and further stimulated with ATP for 30 mins by ELISA relative to control; format: cell-based; details: BMDM, time 1.0 hrs
[16] = Stability in mouse plasma assessed as half life measured upto 8 hrs; format: ADME, cell-free
[17] = target: NACHT, LRR and PYD domains-containing protein 3 (Mus musculus, UniProt Q8R4B8); assay: Inhibition of NLRP3 inflammasome activation in LPS/ATP-induced C57BL/6 mouse BMDMs assessed as reduction in IL-1beta secretion preincubated with LPS for 4 hrs followed by compound addition for 30 mins and further stimulated with ATP for 30 mins by ELISA; format: cell-based, BMDM
Chain of NACHT, LRR and PYD domains-containing protein 3 (Q8R4B8 whole entry, the tested form may be a part): as the sequence (Q8R4B8 whole entry, the tested form may be a part) above

[18] = target: NACHT, LRR and PYD domains-containing protein 3 (Mus musculus) (UniProt Q8R4B8); assay: Inhibition of NLRP3 inflammasome activation in LPS/ATP-induced C57BL/6 mouse BMDMs assessed as reduction in maturation of pro-caspase-1 preincubated with LPS for 4 hrs followed by compound addition for 30 mins and further stimulated with ATP for 30 mins by ELISA; format: cell-based; details: BMDM, time 1.0 hrs
[19] = target: NACHT, LRR and PYD domains-containing protein 3 (Mus musculus) (UniProt Q8R4B8); assay: Inhibition of NLRP3 inflammasome activation in LPS/ATP-induced C57BL/6 mouse BMDMs assessed as reduction in IL-1beta secretion at 200 nM preincubated with LPS for 4 hrs followed by compound addition for 30 mins and further stimulated with ATP for 30 mins by ELISA relative to control; format: cell-based; details: BMDM, time 1.0 hrs
[20] = target: NLR family CARD domain-containing protein 4 (Mus musculus) (UniProt Q3UP24); assay: Inhibition of NLRC4 inflammasome activation in LPS/Poly(dA:dT)-induced C57BL/6 mouse BMDMs at 200 nM […] for 4 hrs followed by compound addition for 30 mins and further Poly(dA:dT) transfected with Lipo-3000 for 4 hrs; format: cell-based; details: BMDM, time 4.5 hrs
Chain of NLR family CARD domain-containing protein 4 (Mus musculus) (Q3UP24 whole entry, the tested form may be a part): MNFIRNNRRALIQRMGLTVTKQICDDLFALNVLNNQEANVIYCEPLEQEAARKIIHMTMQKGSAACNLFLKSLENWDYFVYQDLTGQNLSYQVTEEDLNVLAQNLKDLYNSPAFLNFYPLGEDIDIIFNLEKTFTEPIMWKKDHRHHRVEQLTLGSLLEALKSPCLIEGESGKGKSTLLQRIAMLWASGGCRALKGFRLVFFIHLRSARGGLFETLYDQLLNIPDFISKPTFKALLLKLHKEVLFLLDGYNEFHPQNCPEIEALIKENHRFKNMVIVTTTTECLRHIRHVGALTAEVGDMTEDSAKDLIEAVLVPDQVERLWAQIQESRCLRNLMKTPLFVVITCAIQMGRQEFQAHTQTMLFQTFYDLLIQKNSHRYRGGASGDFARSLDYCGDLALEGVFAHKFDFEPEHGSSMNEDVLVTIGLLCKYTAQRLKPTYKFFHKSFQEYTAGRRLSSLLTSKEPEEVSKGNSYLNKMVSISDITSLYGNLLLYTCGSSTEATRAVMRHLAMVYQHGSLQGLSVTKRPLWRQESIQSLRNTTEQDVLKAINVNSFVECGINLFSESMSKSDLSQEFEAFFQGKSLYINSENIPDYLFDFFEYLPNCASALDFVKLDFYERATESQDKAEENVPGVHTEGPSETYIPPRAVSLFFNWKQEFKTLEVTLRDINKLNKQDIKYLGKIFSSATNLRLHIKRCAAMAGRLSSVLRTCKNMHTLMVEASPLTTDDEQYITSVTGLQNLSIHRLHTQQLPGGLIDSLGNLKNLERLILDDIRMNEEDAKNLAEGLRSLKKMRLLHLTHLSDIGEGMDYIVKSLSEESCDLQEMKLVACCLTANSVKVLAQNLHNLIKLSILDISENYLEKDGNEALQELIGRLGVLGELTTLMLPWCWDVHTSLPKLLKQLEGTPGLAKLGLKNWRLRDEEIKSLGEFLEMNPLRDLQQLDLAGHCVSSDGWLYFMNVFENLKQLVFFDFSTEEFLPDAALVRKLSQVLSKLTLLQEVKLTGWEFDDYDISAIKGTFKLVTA

[21] = target: NACHT, LRR and PYD domains-containing protein 3 (Mus musculus) (UniProt Q8R4B8); assay: Inhibition of NLRP3 inflammasome activation in LPS-induced C57BL/6 mouse BMDMs assessed as effect on phosphorylated p65 expression at 50 to 200 nM preincubated for 24 hrs followed by LPS addition for 4 hrs by Western blotting analysis; format: cell-based; details: BMDM, dose 50-200 nM, time 28.0 hrs
[22] = target: NACHT, LRR and PYD domains-containing protein 3 (Mus musculus) (UniProt Q8R4B8); assay: Inhibition of NLRP3 inflammasome activation in LPS/ATP-induced C57BL/6 mouse BMDMs assessed as reduction in TNFalpha level at 1000 nM preincubated for 30 mins followed by LPS addition for 4 hrs and further ATP stimulation for 30 mins by ELISA; format: cell-based; details: BMDM, time 5.0 hrs
[23] = target: NACHT, LRR and PYD domains-containing protein 3 (Mus musculus) (UniProt Q8R4B8); assay: as §1, with “cleaved caspase-1 secretion” for “NLRP3 expression”; format: cell-based; details: BMDM, dose 50-200 nM, time 1.0 hrs
[24] = Half-life in ICR mouse at 10 mg/kg, po measured upto 24 hrs by LC-MS/MS method; format: ADME, organism-based; details: in vivo
[25] = tested on: Mus musculus; assay: Antiinflammatory activity in C57BL/6 mouse model of arthritis assessed as reduction in MSU-induced joint swelling at 12.5 to 25 mg/kg, iv measured upto 24 hrs; format: functional, organism-based; details: dose 12.5-25 mg/kg
[26] = target: NACHT, LRR and PYD domains-containing protein 3 (Mus musculus) (UniProt Q8R4B8); assay: Inhibition of NLRP3 inflammasome activation in LPS/ATP-induced C57BL/6 mouse BMDMs assessed as reduction in NLRP3 expression preincubated with compound prior to LPS addition for 30 mins and further stimulated with ATP for 30 mins by Western blotting analysis; format: cell-based; details: BMDM, dose 50-200 nM, time 60.0 min
[27] = tested on: Mus musculus; assay: Antiinflammatory activity in MSU-induced C57BL/6 mouse model of arthritis assessed as reduction in inflammatory cell infiltration at 12.5 to 25 mg/kg, iv measured after 24 hrs; format: functional, organism-based; details: dose 12.5-25 mg/kg
[28] = Stability in human liver microsomes assessed as half life preincubated for 5 mins with NADPH followed by compound addition and measured upto 120 mins by LC-MS/MS analysis; format: ADME, Microsome; details: time < 125 min

inhibition [1]: inactive
inhibition [2]: inactive
inhibition [5]: Active
half-life [6]: 6.21 h
half-life [9]: 3.07 h
inhibition [10]: Active
inhibition [11]: inactive
inhibition [13]: inactive
inhibition [15]: 95.3%
half-life [16]: 15.2 h
IC50 [17]: 77.2 nM
inhibition [18]: Dose-Dependent Effect
inhibition [19]: 87.5%
inhibition [20]: Active
inhibition [21]: inactive
inhibition [22]: Active
inhibition [23]: Active
half-life [24]: 1.6 h
inhibition [26]: inactive
half-life [28]: 3.03 h
SMILES: C=C1C(=O)[C@]23[C@H](O)[C@H]1CC[C@H]2[C@]12C=CCC(C)(C)[C@H]1[C@H](O)[C@@]3(OCCC(=O)O)OC2
inhibition at 40 µM [3]: 22%
IC50 [4]: > 40000 nM
Activity [7]: inactive
Activity [8]: inactive
Activity [12]: Active
Activity [14]: Non-Toxic
Activity [25]: Active
Activity [27]: Active

— ChEMBL document CHEMBL5506055, “Hit-to-Lead Optimization of the Natural Product Oridonin as Novel NLRP3 Inflammasome Inhibitors with Potent Anti-Inflammation Activity” (J Med Chem, 2024)
